O=C(O)c1cccc(O)c1O
solubility (mole fraction)
Details | 278.15 K | 283.15 K | 288.15 K | 293.15 K | 298.15 K | 303.15 K | 308.15 K | 313.15 K | 318.15 K
in acetone | 0.0969 | 0.0987 | 0.101 | 0.105 | 0.108 | 0.113 | 0.116 | 0.121 | 0.127
in acetonitrile | 0.00923 | 0.0101 | 0.0108 | 0.0115 | 0.013 | 0.0147 | 0.0158 | 0.0174 | 0.0198
in ethanol | 0.0838 | 0.0855 | 0.0884 | 0.0907 | 0.0944 | 0.0973 | 0.101 | 0.105 | 0.11
in ethyl acetate | 0.0459 | 0.048 | 0.0513 | 0.0547 | 0.059 | 0.0613 | 0.066 | 0.0719 | 0.0761
in ethyl formate | 0.0232 | 0.0245 | 0.0258 | 0.0277 | 0.0301 | 0.0321 | 0.0351 | 0.0374 | 0.0411
in isopentanol | 0.0569 | 0.0605 | 0.064 | 0.067 | 0.0709 | 0.0744 | 0.0803 | 0.0859 | 0.0904
in isopropanol | 0.0697 | 0.0727 | 0.0764 | 0.0824 | 0.0879 | 0.0902 | 0.0976 | 0.103 | 0.11
in isopropyl acetate | 0.0426 | 0.045 | 0.0494 | 0.0532 | 0.0568 | 0.0602 | 0.0644 | 0.0696 | 0.0728
in methyl acetate | 0.0466 | 0.0493 | 0.0529 | 0.0571 | 0.0594 | 0.0621 | 0.0665 | 0.0726 | 0.0764
in n-butanol | 0.0653 | 0.0683 | 0.0706 | 0.0737 | 0.0766 | 0.0806 | 0.0853 | 0.0903 | 0.0952
in n-propanol | 0.0664 | 0.07 | 0.0727 | 0.0761 | 0.0788 | 0.084 | 0.0873 | 0.0915 | 0.0977
in n-propyl acetate | 0.0454 | 0.048 | 0.0504 | 0.0534 | 0.0564 | 0.0581 | 0.0615 | 0.0672 | 0.0721

From BigSolDB 2.1
